Values of other authors, collected in US7332498B2, “Modulation of KSP kinesin activity with heterocyclic-fused pyrimidinone derivatives” (Cytokinetics, Inc., priority 2002, dated 2008).

system: A549 cells; conditions: data provided by National Cancer Institute, Developmental Therapeutic Program

Going from COc1cccc2c1C(=O)c1c(O)c3c(c(O)c1C2=O)C[C@@](O)(C(=O)CO)C[C@@H]3O[C@H]1C[C@H](N)[C@H](O)[C@H](C)O1 [doxorubicin] to CC(=O)O[C@H]1C(=O)[C@@]2(C)[C@H]([C@H](OC(=O)c3ccccc3)[C@]3(O)C[C@H](OC(=O)[C@H](O)[C@@H](NC(=O)c4ccccc4)c4ccccc4)C(C)=C1C3(C)C)[C@]1(OC(C)=O)CO[C@@H]1C[C@@H]2O [paclitaxel], the GI50 falls from 63 nM to 4 nM (16-fold).

Going from O=c1[nH]cc(F)c(=O)[nH]1 [5-fluorouracil] to NC(=O)NO [hydroxyurea], the GI50 rises from 1000 nM to 500000 nM (500-fold).
